In patent US11597954B2, “Bioproduction of phenethyl alcohol, aldehyde, acid, amine, and related compounds” (National University of Singapore, priority 2017, dated 2023):

Assays:
[1] = tested on: E. coli (pRSF-PAL-PAD_pET-SMO-SOI-PAR); format: cell-based
Method: (§1) The reaction for FIG. 17b was done at 30° C. and 250 rpm in 2 ml KP buffer (100 mM, pH 8.0) containing 0.5% (w/v) glucose, 5 g cdw/L of cell suspension, 10 mM L-phenylalanine, and (•) 0 or (▴) 3 mM of 2-PE in the aqueous phase, with n-hexadecane in the organic phase.
The product inhibition was investigated by adding different concentration of 2-PE to the cell suspension (10 g cdw/L) of E. coli (pRSF-PAL-PAD_pET-SMO-SOI-PAR) in KP buffer (100 mM, pH 8.0) containing 0.5% glucose in aqueous phase with n-hexadecane as the organic phase, followed by the incubation at 30° C. and 250 rpm for 3 h.
Biotransformation was done in aqueous phase with KP buffer (100 mM, pH 8.0) containing cell suspension (10 g cdw/l), 0.5% glucose, and 50 mM L-phenylalanine as initial substrate while n-hexadecane as the organic phase (250 rpm, 2 h, 30° C.)

[2] = tested on: E. coli (R-PAL-PAD_E-SMO-SOI-PAR); assay: Apparent kinetics of the whole-cells (Lineweaver-Burk plot) with and without 2-PE; format: cell-based; settings: competitive inhibition; 3 mM 2-PE, 15 minutes, 5 g cdw/L cells, 10 mM L-phenylalanine, 30° C.
Method: as §1
To further investigate the product inhibition, the apparent kinetics of the whole-cells was measured and determined using Lineweaver-Burk plot. 2-PE concentration of 3 mM was used for 15 minutes in order to determine the kinetic, thus the product toxicity towards the cells could be neglected.

[3] = Partition coefficient in aqueous-organic biphasic system; format: physicochemical; settings: for Partition coefficient K value: phase ratio 1:1
Method: FIGS. 18a and 18b show (FIG. 18a) partition coefficient of 2-PE in aqueous-organic biphasic system. Partition coefficient measured at a phase ratio of 1:1. KP buffer (100 mM, pH 8.0) was utilized as the aqueous buffer. All data were obtained from the mean values of triplicate with standard deviations through HPLC analysis. K value for L-phenylalanine was observed as ˜0 in all the respective organic solvents mentioned and (FIG. 18b) screening of 7 different organic solvent for the one-pot production of 2-PE from L-phenylalanine with the KP buffer (100 mM, pH 8.0) containing 0.5% glucose and 50 mM L-phenylalanine.
In-situ product removal technique via extraction have been conducted to remove the obtained 2-PE from the aqueous phase and make its concentration below the inhibitory level. We investigated different type of organic solvents and ionic liquids to perform the extractive biotransformation for 2-PE production via styrene-derived pathway from L-phenylalanine, starting from the analysis of their partition coefficients in the biphasic system. Product and substrate coefficient partitions in organic and aqueous phase were determined by adding different concentration of 2-PE and L-phenylalanine, respectively, into KP buffer (100 mM, pH 8.0) together with the respective organic solvents. Reaction mixtures were incubated for 1 h (280 rpm, 30° C.).

[4] = tested on: cells; settings: literature; cited from earlier work

| Partition coefficient K value ([3]; all the respective organic solvents vs KP buffer (100 mM, pH 8.0)) | Compound | 2-PE concentration in the aqueous phase that started to inhibit the biotransformation ([1]; 3 h pretreatment, then 50 mM L-phenylalanine, 2 h, 30° C.) | Toxicity of 2-PE to the cells ([1]; cells 10 g cdw/L incubated with 2-PE 3 h, 30° C., KP buffer pH 8.0 / n-hexadecane) | Biotransformation activity of cells pretreated with 2-PE ([1]; pretreated with 90 mM 2-PE) | Ki [2] | Partition coefficient K value ([3]; most of the organic solvents used vs KP buffer (100 mM, pH 8.0)) | Partition coefficient ([3]; n-hexadecane vs KP buffer (100 mM, pH 8.0), compared with the other organic solvents) | Concentration of 2-PE that will inhibit the cells [4] |
| --- | --- | --- | --- | --- | --- | --- | --- | --- |
|  | OCCc1ccccc1 [2-PE, 2-Phenylethanol] | above 30 mM | toxic | almost no activity | 4.8 mM | > 1 | much lower | 2-3 gr/L |
| ~0 | N[C@@H](Cc1ccccc1)C(=O)O [L-phenylalanine] |  |  |  |  |  |  |  |
